Laboratory results published in publication PMC11434067, “Bioassay-Guided Isolation and Identification of Xanthine Oxidase Inhibitory Constituents from the Fruits of Chaenomeles speciosa (Sweet) Nakai” (Molecules, 2024).
Like-named read-outs stand apart in the source and are kept apart here.

Key:
XO [1] = target: T1, XO (Bos taurus, UniProt P80457); test: In vitro xanthine oxidase inhibition assay (uric acid formation, absorbance at 290 nm); assay type: biochemical
XO [2] = target: T1, XO; conditions: cited from earlier work

T1 sequence (P80457 whole entry): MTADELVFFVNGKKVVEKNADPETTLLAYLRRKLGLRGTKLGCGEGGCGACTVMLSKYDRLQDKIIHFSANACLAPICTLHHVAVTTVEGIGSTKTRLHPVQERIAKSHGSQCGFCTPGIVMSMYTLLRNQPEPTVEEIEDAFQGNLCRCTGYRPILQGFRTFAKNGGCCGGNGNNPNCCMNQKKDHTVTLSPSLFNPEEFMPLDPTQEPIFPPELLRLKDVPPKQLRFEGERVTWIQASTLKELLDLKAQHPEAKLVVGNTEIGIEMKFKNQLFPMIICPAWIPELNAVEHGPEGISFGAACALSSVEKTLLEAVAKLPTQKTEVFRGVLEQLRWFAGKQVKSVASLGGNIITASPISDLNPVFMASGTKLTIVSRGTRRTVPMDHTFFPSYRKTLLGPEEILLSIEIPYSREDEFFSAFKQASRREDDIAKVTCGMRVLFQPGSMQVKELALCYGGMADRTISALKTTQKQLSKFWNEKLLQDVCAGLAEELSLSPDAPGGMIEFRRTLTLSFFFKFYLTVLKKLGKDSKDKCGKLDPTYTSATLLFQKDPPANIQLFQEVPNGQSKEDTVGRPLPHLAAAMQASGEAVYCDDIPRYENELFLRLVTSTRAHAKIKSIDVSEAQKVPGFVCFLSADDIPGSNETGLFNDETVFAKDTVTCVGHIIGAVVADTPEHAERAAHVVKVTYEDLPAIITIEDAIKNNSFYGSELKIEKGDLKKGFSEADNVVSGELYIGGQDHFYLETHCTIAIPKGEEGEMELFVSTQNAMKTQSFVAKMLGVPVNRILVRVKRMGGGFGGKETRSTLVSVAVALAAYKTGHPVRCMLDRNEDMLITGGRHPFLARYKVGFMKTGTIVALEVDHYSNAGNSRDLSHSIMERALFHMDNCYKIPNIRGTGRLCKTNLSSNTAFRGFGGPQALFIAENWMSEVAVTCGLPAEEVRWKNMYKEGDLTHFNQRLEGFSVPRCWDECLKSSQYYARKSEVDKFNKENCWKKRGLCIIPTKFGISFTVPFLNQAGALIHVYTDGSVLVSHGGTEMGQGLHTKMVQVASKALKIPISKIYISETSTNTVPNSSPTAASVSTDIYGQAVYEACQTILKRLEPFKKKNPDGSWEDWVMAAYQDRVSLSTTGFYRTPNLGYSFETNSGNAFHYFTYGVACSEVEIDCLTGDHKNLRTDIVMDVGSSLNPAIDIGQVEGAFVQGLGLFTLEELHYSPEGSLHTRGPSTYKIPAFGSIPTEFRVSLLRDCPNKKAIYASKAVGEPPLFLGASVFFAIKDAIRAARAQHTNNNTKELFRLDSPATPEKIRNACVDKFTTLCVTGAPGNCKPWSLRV

| SMILES | IC50 (XO [1]) | also measured |
| --- | --- | --- |
| O=C(O)c1ccc(O)c(O)c1 [compound 9, protocatechuic acid] | 651 µM |  |
| O=C(O)c1ccccc1 [compound 8, benzoic acid] | 104 µM | inhibition of XO at low concentration (in words) (XO [1]; concentration lower than 200 µM): high inhibition |
| CCOC(=O)[C@]1(O)C[C@@H](O)[C@@H](O)[C@H](OC(=O)/C=C/c2ccc(O)c(O)c2)C1 [compound 3, ethyl chlorogenate] | 450 µM |  |
| COC(=O)C1(O)C[C@@H](O)C(OC(=O)/C=C/c2ccc(O)c(O)c2)[C@H](O)C1 (stereo partly drawn) [compound 5, cryptochlorogenic acid methyl ester] | 600 µM |  |

The next lines start with results.

| IC50 (XO [1]) | SMILES | also measured |
| --- | --- | --- |
| 242 µM | O=C(O)/C=C/c1ccc(O)c(O)c1 [compound 6, caffeic acid] |  |
| 297 µM | O=C(/C=C/c1ccc(O)c(O)c1)O[C@@H]1C[C@](O)(C(=O)O)C[C@@H](O)[C@H]1O [compound 4, chlorogenic acid] | type of XO inhibition (XO [2]; ref 45): noncompetitive inhibition; type of XO inhibition (XO [2]; ref 46): non-competitive inhibitory effect |
| 399 µM | CCCCOC(=O)C1(O)CC(O)C(O)C(OC(=O)C=Cc2ccc(O)c(O)c2)C1 (stereo not drawn) [compound 2, butyl chlorogenate] |  |
| 351 µM | O=C(O)/C=C/c1ccc(O)cc1 [compound 7, p-coumaric acid] |  |
| 425 µM | COC(=O)[C@]1(O)C[C@@H](O)[C@@H](O)[C@H](OC(=O)/C=C/c2ccc(O)c(O)c2)C1 [compound 1, methyl chlorogenate] |  |
